Assay results reported in patent publication US11787802B2, “Dihydrobenzimidazolones for medical treatment” (C4 Therapeutics, Inc., priority 2017, dated 2023).
pKd: −log10 of the molar value. Structures can show the parent of a compound that is named as a salt.

Molecular target: hCereblon(M1-L442)_hDDB1(M1-H1140) (Homo sapiens (Human), UniProt Q96SW2)
Experiment: Fluorescence direct binding protocol (tryptophan fluorescence titration)
Conditions: fluorescence titration at 20° C., excited at 280 nm, recorded at 340 nm; protein 5.0 E−8 M; assay buffer 50 mM Hepes 7.4 200 mM NaCl; read-out: Fluorescence h-Cereblon_DDB1 Mean Kd_EQ
Procedure: Fluorescence Direct Binding Protocol
Determination of the affinities of compounds to protein containing one or more tryptophan is measurable by monitoring the fluorescence emission in direct mode. The measurements depending on the protein available amounts are performed either manually in a cuvette on ISS-PC1 photon counting spectrofluorometer or automatically in well plates on a fluorescence plate reader device. Fluorescence titrations are performed at 20° C. in the chosen binding assay buffer by using a defined constant protein concentration against ligand concentration variations. Small aliquots of known ligand concentration solubilized in DMSO were added and the fluorescence, excited at 280 nm, was recorded at 340 nm. The fluorescence intensity was corrected for protein dilution and for the filter effect (Birdsall et al.^69). The corrected fluorescence intensity was plotted against the ligand concentration and fitted using a four-parameter sigmoidal function, from which the equilibrium dissociation constant Kd was computed using the law of mass action assuming a 1:1 protein-ligand complex (Eftink, 1997^70).
Process • 1) Optimization of measurement parameters to minimize protein consumption and to minimize the dilution effect and the DMSO content • 2) Titration measurements of the protein against ligand by at least 12 titration steps to obtain a good s-curve fit • 3) Repeat the same titration measurements with the ligand alone to enable correction • 4) Check the stability of the protein once by titration against DMSO alone • 5) Determination of the molar extinction coefficients of the ligand at 280 and 340 nm with help of an UV-spectrophotometer • 6) Use Excel template for the correction of the measured raw data • 7) Use GraphPad Prism software for the quadratic binding fit and the KD evaluation.

Chain of hCereblon(M1-L442)_hDDB1(M1-H1140) (Q96SW2 whole entry): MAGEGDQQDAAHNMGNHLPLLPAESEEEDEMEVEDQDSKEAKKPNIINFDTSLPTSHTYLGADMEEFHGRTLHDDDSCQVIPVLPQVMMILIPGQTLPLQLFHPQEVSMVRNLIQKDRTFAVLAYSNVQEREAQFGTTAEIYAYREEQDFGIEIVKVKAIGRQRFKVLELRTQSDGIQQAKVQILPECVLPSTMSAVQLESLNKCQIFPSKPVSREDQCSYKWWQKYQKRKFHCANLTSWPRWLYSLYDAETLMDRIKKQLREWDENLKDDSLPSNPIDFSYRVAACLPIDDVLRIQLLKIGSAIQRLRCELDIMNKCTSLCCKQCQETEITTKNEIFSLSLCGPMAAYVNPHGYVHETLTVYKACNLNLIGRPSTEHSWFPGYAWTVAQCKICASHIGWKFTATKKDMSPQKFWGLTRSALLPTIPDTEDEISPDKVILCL
Chain of hCereblon(M1-L442)_hDDB1(M1-H1140) (Q16531 whole entry partner): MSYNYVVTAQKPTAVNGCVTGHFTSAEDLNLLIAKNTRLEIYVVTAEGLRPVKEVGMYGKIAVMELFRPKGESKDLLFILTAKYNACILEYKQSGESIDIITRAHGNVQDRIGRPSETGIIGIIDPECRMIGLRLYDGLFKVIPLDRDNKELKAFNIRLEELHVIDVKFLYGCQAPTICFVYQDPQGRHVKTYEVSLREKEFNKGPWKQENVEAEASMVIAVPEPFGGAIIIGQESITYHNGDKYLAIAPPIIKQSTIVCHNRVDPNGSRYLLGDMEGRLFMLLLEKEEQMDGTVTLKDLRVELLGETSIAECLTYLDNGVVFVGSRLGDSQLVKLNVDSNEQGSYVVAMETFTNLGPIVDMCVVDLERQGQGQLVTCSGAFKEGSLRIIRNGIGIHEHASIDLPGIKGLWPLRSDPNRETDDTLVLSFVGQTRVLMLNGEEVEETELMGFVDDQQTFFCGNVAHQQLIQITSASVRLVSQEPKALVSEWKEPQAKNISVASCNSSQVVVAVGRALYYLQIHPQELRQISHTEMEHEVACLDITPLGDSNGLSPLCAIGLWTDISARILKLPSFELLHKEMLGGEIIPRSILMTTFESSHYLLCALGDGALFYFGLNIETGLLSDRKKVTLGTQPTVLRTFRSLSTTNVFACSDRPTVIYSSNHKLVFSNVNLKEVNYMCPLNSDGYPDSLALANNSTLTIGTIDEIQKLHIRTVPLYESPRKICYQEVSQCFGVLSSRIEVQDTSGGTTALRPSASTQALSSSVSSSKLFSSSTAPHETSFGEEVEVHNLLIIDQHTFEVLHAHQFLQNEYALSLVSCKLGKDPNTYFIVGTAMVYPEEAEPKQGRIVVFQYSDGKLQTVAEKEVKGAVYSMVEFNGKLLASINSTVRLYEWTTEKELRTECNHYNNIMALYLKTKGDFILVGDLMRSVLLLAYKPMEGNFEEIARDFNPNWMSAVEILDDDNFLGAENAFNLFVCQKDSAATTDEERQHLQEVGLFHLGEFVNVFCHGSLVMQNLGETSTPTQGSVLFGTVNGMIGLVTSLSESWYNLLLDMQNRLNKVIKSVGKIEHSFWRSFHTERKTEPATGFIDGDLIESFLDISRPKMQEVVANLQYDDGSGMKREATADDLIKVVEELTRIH

| Compound | pKd |
| --- | --- |
| O=C(c1ccc2[nH]c(=O)[nH]c2c1)N1CCCc2ccccc21 [Example 97, 5-(1,2,3,4-Tetrahydroquinoline-1-carbonyl)-1,3-dihydro-2H-benzo[d]imidazol-2-one] | 8.05 |
| CNC(=O)CCc1nc2ccccc2n1-c1ccc2[nH]c(=O)[nH]c2c1 [Example 81, N-Methyl-3-[1-(2-oxo-1,3-dihydrobenzimidazol-5-yl)benzimidazol-2-yl]propanamide] | 8.40 |
| CC(C)c1nc2ccccc2n1-c1ccc2[nH]c(=O)n(C)c2c1 [Example 35, 2-Isopropyl-3′-methyl-1′,3′-dihydro-2′H-[1,5′-bibenzo[d]imidazol]-2′-one] | 7.62 |
| Cn1c(=O)[nH]c2cc(Nc3ccccc3N)ccc21 [Example 53, 5-((2-Aminophenyl)amino)-1-methyl-1,3-dihydro-2H-benzo[d]imidazol-2-one] | 7.31 |
| COC(=O)c1ccccc1C(=O)Nc1ccc2[nH]c(=O)[nH]c2c1 [Example 151, Methyl 2-((2-oxo-2,3-dihydro-1H-benzo[d]imidazol-5-yl)carbamoyl)benzoate] | 7.28 |
| O=c1[nH]c2ccc(-c3cc(F)ccc3F)cc2[nH]1 [Example 37, 5-(2,5-Difluoro-phenyl)-1,3-dihydro-benzoimidazol-2-one] | 8.00 |
| O=C(NC1CCN(Cc2ccccc2)CC1)c1ccc2[nH]c(=O)[nH]c2c1 [Example 139, N-(1-Benzylpiperidin-4-yl)-2-oxo-2,3-dihydro-1H-benzo[d]imidazole-5-carboxamide] | 8.40 |
| CC(=O)Nc1ccc2c(c1)CCN2c1ccc2[nH]c(=O)[nH]c2c1 [Example 141, N-(1-(2-Oxo-2,3-dihydro-1H-benzo[d]imidazol-5-yl)indolin-5-yl)acetamide] | 7.28 |
| O=c1[nH]c2ccc(-c3cccnc3)cc2[nH]1 [Example 19, 5-(Pyridin-3-yl)-1H-benzo[d]imidazol-2(3H)-one] | 8.15 |
| CNC(=O)c1ccc2c(c1)nc(C(C)(C)C)n2-c1ccc2[nH]c(=O)[nH]c2c1 [Example 46, 2-(tert-Butyl)-N-methyl-2′-oxo-2′,3′-dihydro-1′H-[1,5′-bibenzo[d]imidazole]-5-carboxamide] | 8.00 |
| CNC(=O)c1ccc2c(c1)nc(-c1cccc(COC)c1)n2-c1ccc2[nH]c(=O)[nH]c2c1 [Example 57, 2-(3-(Methoxymethyl)phenyl)-N-methyl-2′-oxo-2′,3′-dihydro-1′H-[1,5′-bibenzo[d]imidazole]-5-carboxamide] | 8.15 |
| CNC(=O)c1ccc2c(c1)nc(-c1ccnc(OC)c1)n2-c1ccc2[nH]c(=O)[nH]c2c1 [Example 108, 2-(2-Methoxypyridin-4-yl)-N-methyl-2′-oxo-2′,3′-dihydro-1′H-[1,5′-bibenzo[d]imidazole]-5-carboxamide] | 6.97 |
| CNC(=O)c1ccc2c(c1)nc(-c1ccnc3ccccc13)n2-c1ccc2[nH]c(=O)[nH]c2c1 [Example 3, N-Methyl-2′-oxo-2-(quinolin-4-yl)-2′,3′-dihydro-1′H-[1,5′-bibenzo[d]imidazole]-5-carboxamide] | 7.41 |
| O=C(Nc1ccc2[nH]c(=O)[nH]c2c1)[C@@H]1CCCc2ccccc21 [Example 72, (R)—N-(2-Oxo-2,3-dihydro-1H-benzo[d]imidazol-5-yl)-1,2,3,4-tetrahydronaphthalene-1-carboxamide] | 7.85 |
| CC(C)c1nccn1-c1ccc2[nH]c(=O)[nH]c2c1 [Example 32, 5-(2-Isopropyl-1H-imidazol-1-yl)-1,3-dihydro-2H-benzo[d]imidazol-2-one] | 8.22 |
| COC(=O)c1ccc(Nc2ccc3[nH]c(=O)[nH]c3c2)c(N)c1 [Example 9, Methyl 3-amino-4-((2-oxo-2,3-dihydro-1H-benzo[d]imidazol-5-yl)amino)benzoate] | 7.54 |
| COc1ccc2c(c1)nc(C(C)C)n2-c1ccc2[nH]c(=O)[nH]c2c1 [Example 124, 2-Isopropyl-5-methoxy-1′,3′-dihydro-2′H-[1,5′-bibenzo[d]imidazol]-2′-one] | 7.89 |
| O=C(Nc1ccc(Nc2ccccc2)cc1)Nc1ccc2[nH]c(=O)[nH]c2c1 [Example 87, 1-(2-Oxo-2,3-dihydro-1H-benzo[d]imidazol-5-yl)-3-(4-(phenylamino)phenyl)urea] | 7.57 |
| CNC(=O)c1cccc2c1CCCN2C(=O)Nc1ccc2[nH]c(=O)[nH]c2c1 [Example 109, N5-Methyl-N1-(2-oxo-2,3-dihydro-1H-benzo[d]imidazol-5-yl)-3,4-dihydroquinoline-1,5(2H)-dicarboxamide] | 7.41 |

| Compound | pKd |
| --- | --- |
| Cn1cncc1-c1cc(-c2nc3cc(C(N)=O)ccc3n2-c2ccc3[nH]c(=O)[nH]c3c2)c2ccccc2n1 [Example 113, 2-(2-(1-Methyl-1H-imidazol-5-yl)quinolin-4-yl)-2′-oxo-2′,3′-dihydro-1′H-[1,5′-bibenzo[d]imidazole]-5-carboxamide] | 6.05 |
| CC(C)(C)OC(=O)Nc1ccc2c(c1)CCN2Cc1ccc2[nH]c(=O)[nH]c2c1 [Example 148, tert-Butyl (1-((2-oxo-2,3-dihydro-1H-benzo[d]imidazol-5-yl)methyl)indolin-5-yl)carbamate] | 7.72 |
| CC(=O)N1CCC(NC(=O)c2ccc3[nH]c(=O)[nH]c3c2)CC1 [Example 23, N-(1-Acetylpiperidin-4-yl)-2-oxo-2,3-dihydro-1H-benzo[d]imidazole-5-carboxamide] | 8.52 |
| CC(O)c1nc2ccccc2n1-c1ccc2[nH]c(=O)[nH]c2c1 (centres unmarked) [Example 84, 5-[2-(1-Hydroxyethyl)benzimidazol-1-yl]-1,3-dihydrobenzimidazol-2-one] | 8.52 |
| NS(=O)(=O)c1ccc(CC(=O)Nc2ccc3[nH]c(=O)[nH]c3c2)cc1 [Example 99, N-(2-Oxo-2,3-dihydro-1H-benzo[d]imidazol-5-yl)-2-(4-sulfamoylphenyl)acetamide] | 7.34 |
| O=C(Nc1ccc2[nH]c(=O)[nH]c2c1)c1cccc2c1CCN2 [Example 144, N-(2-Oxo-2,3-dihydro-1H-benzo[d]imidazol-5-yl)indoline-4-carboxamide] | 7.54 |
| O=c1[nH]c2ccc(-n3c(CO)nc4ccccc43)cc2[nH]1 [Example 61, 5-[2-(Hydroxymethyl)benzimidazol-1-yl]-1,3-dihydrobenzimidazol-2-one] | 7.54 |
| O=C(c1cnc2[nH]c(=O)[nH]c2c1)N1CCCc2ccccc21 [Example 95, 6-(1,2,3,4-Tetrahydroquinoline-1-carbonyl)-1,3-dihydro-2H-imidazo[4,5-b]pyridin-2-one] | 7.70 |
| CC(=O)Nc1ccc(CC(=O)Nc2ccc3[nH]c(=O)[nH]c3c2)cc1 [Example 78, 2-(4-Acetamidophenyl)-N-(2-oxo-2,3-dihydro-1H-benzo[d]imidazol-5-yl)acetamide] | 7.64 |
| CNC(=O)c1ccc(Oc2ccc3[nH]c(=O)[nH]c3c2)cc1 [Example 156, N-Methyl-4-((2-oxo-2,3-dihydro-1H-benzo[d]imidazol-5-yl)oxy)benzamide] | 7.66 |
| O=c1[nH]c2ccc(CCCc3ccccc3)nc2[nH]1 [Example 26, 5-(3-Phenyl-propyl)-1,3-dihydro-imidazo[4,5-b]pyridin-2-one] | 7.39 |
| CC(C)c1nc2ccccc2n1-c1ccc2c(c1)[nH]c(=O)n2C [Example 34, 2-Isopropyl-1′-methyl-1′,3′-dihydro-2′H-[1,5′-bibenzo[d]imidazol]-2′-one] | 7.72 |
| CC(C)c1nc2cc(OCc3ccccc3)ccc2n1-c1ccc2[nH]c(=O)[nH]c2c1 [Example 120, 5-(Benzyloxy)-2-isopropyl-1′,3′-dihydro-2′H-[1,5′-bibenzo[d]imidazol]-2′-one] | 6.71 |
| O=c1[nH]c2ccc(-c3cccc4ncccc34)cc2[nH]1 [Example 42, 5-Quinolin-5-yl-1,3-dihydro-benzoimidazol-2-one] | 6.47 |
| O=c1[nH]c2ccc(-n3cnc4ccccc43)cc2[nH]1 [Example 83, 5-(Benzimidazol-1-yl)-1,3-dihydrobenzimidazol-2-one] | 8.52 |
| COC(=O)c1ccc2c(c1)nc(-c1cc(-c3cncn3C)nc3ccccc13)n2-c1ccc2[nH]c(=O)[nH]c2c1 [Example 107, Methyl 2-(2-(1-methyl-1H-imidazol-5-yl)quinolin-4-yl)-2′-oxo-2′,3′-dihydro-1′H-[1,5′-bibenzo[d]imidazole]-5-carboxylate] | 6.08 |
| COC(=O)c1cccc2c1nc(C(C)C)n2-c1ccc2[nH]c(=O)[nH]c2c1 [Example 47, Methyl 2-isopropyl-2′-oxo-2′,3′-dihydro-1′H-[1,5′-bibenzo[d]imidazole]-4-carboxylate] | 7.70 |
| Nc1ccc2c(c1)CCN2c1ccc2[nH]c(=O)[nH]c2c1 [Example 140, 5-(5-Aminoindolin-1-yl)-1,3-dihydro-2H-benzo[d]imidazol-2-one hydrochloride] | 6.77 |
| CNC(=O)c1ccc2nc(C(C)C)n(-c3ccc4[nH]c(=O)[nH]c4c3)c2c1 [Example 30, 2-Isopropyl-N-methyl-2′-oxo-2′,3′-dihydro-1′H-[1,5′-bibenzo[d]imidazole]-6-carboxamide] | 9.00 |
